For 28 molecules, IC50 and inhibition results are on record in ChEMBL document CHEMBL5055678, “Structure-based drug design of novel and highly potent pyruvate dehydrogenase kinase inhibitors” (Bioorg Med Chem, 2021).

For test [1], the target named is [Pyruvate dehydrogenase (acetyl-transferring)] kinase isozyme 2, mitochondrial (Homo sapiens, UniProt Q15119). Description: Inhibition of human recombinant PDHK2 co-complexed with porcine PDH using sodium pyruvate, coenzymeA and NAD as substrates preincubated with enzyme complex for 45 mins followed by substrates addition and further incubated for 90 mins in presence of ATP at Km concentration by spectrophotometric assay.

Test [2] deals with T1, Branched-chain alpha-ketoacid dehydrogenase kinase (Homo sapiens, UniProt O14874). Description: Inhibition of human recombinant BCKDK at >100 uM incubated for 60 mins in presence of ATP by ADP-Glo reagent based luminescent assay relative to control. (In general: ADP-Glo first removes unused ATP, then detects ADP through luciferase.)
The target of test [3] is T1, Branched-chain alpha-ketoacid dehydrogenase kinase. Nature of the test: Inhibition of human recombinant BCKDK incubated for 60 mins in presence of ATP by ADP-Glo reagent based luminescent assay.
Test [4] addresses T2, [Pyruvate dehydrogenase (acetyl-transferring)] kinase isozyme 4, mitochondrial (Homo sapiens, UniProt Q16654). Description: Inhibition of human recombinant PDHK4 co-complexed with porcine PDH using sodium pyruvate, coenzymeA and NAD as substrates preincubated with enzyme complex for 45 mins followed by substrates addition and further incubated for 90 mins in presence of ATP at Km concentration by spectrophotometric assay.
Target sequence in this assay (Q16654 whole entry): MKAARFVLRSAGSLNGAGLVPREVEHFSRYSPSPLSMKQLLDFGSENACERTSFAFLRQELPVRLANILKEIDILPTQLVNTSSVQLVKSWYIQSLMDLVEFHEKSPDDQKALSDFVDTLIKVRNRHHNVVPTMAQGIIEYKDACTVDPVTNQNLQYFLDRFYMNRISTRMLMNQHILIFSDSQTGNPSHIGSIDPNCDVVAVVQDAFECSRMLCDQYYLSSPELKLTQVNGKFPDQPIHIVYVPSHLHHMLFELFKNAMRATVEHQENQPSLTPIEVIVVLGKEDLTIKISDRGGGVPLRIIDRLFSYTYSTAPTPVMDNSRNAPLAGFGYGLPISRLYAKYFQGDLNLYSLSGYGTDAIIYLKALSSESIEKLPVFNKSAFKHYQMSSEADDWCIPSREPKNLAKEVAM

Test [5] deals with [Pyruvate dehydrogenase (acetyl-transferring)] kinase isozyme 1, mitochondrial (Homo sapiens, UniProt Q15118). Nature of the test: Inhibition of human recombinant PDHK1 co-complexed with porcine PDH using sodium pyruvate, coenzymeA and NAD as substrates preincubated with enzyme complex for 45 mins followed by substrates addition and further incubated for 90 mins by spectrophotometric assay.

The target of test [6] is T2, [Pyruvate dehydrogenase (acetyl-transferring)] kinase isozyme 4, mitochondrial. Description: Inhibition of human recombinant PDHK4 co-complexed with porcine PDH at 30 uM using sodium pyruvate, coenzymeA and NAD as substrates preincubated with enzyme complex for 45 mins followed by substrates addition and further incubated for 90 mins in presence of ATP at Km concentration by spectrophotometric assay relative to control. The conditions noted are these: time 135.0 min.
Target sequence in this assay (Q16654 whole entry, looked up): as the sequence (Q16654 whole entry) above

[Pyruvate dehydrogenase (acetyl-transferring)] kinase isozyme 1, mitochondrial, sequence (Q15118 whole entry): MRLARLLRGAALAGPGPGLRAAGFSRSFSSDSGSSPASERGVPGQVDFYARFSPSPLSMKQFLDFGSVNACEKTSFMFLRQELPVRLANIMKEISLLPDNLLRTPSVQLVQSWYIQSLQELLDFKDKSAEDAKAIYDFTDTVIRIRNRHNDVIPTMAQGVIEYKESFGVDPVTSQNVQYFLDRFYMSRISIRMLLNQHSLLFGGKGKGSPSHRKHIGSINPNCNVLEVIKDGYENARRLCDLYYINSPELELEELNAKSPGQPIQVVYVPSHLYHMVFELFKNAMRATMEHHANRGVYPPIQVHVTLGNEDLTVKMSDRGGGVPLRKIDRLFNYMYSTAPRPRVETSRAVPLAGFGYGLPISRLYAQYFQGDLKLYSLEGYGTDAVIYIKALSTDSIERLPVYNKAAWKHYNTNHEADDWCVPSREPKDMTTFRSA

`Cc1nc2[nH]c3c(C4CC4)cccc3c2cc1-c1nnc(C(CC(=O)NCc2ccccc2)C(C)C)o1` (stereo not drawn): the IC50 (usually the concentration that gives 50% inhibition) in test [1] is 6 nM; in test [3] it was > 100000 nM; in test [4], 32.9 nM. Besides, the inhibition (usually the percentage by which the read-out fell short of the control) in test [2] was 18%.

`Cc1ccc2c(n1)[nH]c1c(C3CC3)cccc12`: the IC50 in test [1] stood at 2030 nM; in test [4] it was 11900 nM.

For the molecule `CCc1nnc(-c2cc3c(nc2C)[nH]c2c(C4CC4)cccc23)o1`, the IC50 in test [1] was 190 nM; in test [4], 2120 nM.

Turning to `Cc1nc2[nH]c3c(C4CC4)cccc3c2cc1-c1nnc(C(NC(=O)CCc2ccccc2)C(C)C)o1` (stereo not drawn), the IC50 is 4.2 nM in test [1], > 100000 nM in test [3] and 24.1 nM in test [4]. The inhibition in test [2] turned out to be 3%.

With `COC(=O)c1cc2c(nc1C)[nH]c1c(C3CC3)cccc12`, the IC50 in test [1] came to 210 nM; in test [4], 1540 nM.

Regarding `Cc1ncc2c(n1)[nH]c1c(C3CC3)cccc12`, the IC50 in test [1] is 710 nM; in test [3], > 300000 nM; in test [5], 5870 nM.

Turning to `Cc1nc(N2CCC[C@@H]2CO)c2c(n1)[nH]c1c(C3CC3)cccc12`, the results for the IC50 in test [1] and in test [4] were 8520 nM and > 30000 nM, respectively. Moreover, the inhibition in test [6] amounted to 21%.

Turning to `Cc1cnc(Cl)nc1-c1ccc(N(Cc2ccccc2)C(=O)c2ccc(O)cc2O)cc1`, the IC50 is 35 nM in test [1] and 350 nM in test [4].

Consider `Cc1nc(N2C[C@H](Cc3ccccc3)C[C@H]2CO)c2c(n1)[nH]c1c(C3CC3)cccc12`, for which the IC50 came to 73 nM in test [1] and 1120 nM in test [4].

On to `Cc1nc2[nH]c3c(C4CC4)cccc3c2cc1-c1ccccc1`, for which the figures for the IC50 in test [1] and in test [4] were 5330 nM and 7490 nM, respectively.

As for `Cc1nc(N2CCCC2)c2c(n1)[nH]c1c(C3CC3)cccc12`, the figures for the IC50 in test [1] and in test [4] were 2410 nM and 10300 nM, respectively.

With `Cc1nc2[nH]c3c(C4CC4)cccc3c2cc1-c1ccccn1`, the figures for the IC50 in test [1] and in test [4] were 1510 nM and 2980 nM, respectively.

Consider `Cc1nc(N2C[C@H](c3ccccc3)C[C@H]2CO)c2c(n1)[nH]c1c(C3CC3)cccc12`, for which the concentration for half-maximal inhibition (IC50) in test [1] was 1010 nM; in test [4], 7700 nM.

Turning to `CC[C@@H]1C[C@H](c2ccc(C(=O)O)[nH]2)CN1c1nc(C)nc2[nH]c3c(C4CC4)cccc3c12`, the IC50 in test [1] is 9.2 nM; in test [4], 40.6 nM.

`Cc1nnc(-c2cc3c(nc2C)[nH]c2c(C4CC4)cccc23)o1`: the IC50 turned out to be 490 nM in test [1] and 1510 nM in test [4].

As for `CCC1CCCN1c1nc(C)nc2[nH]c3c(C4CC4)cccc3c12` (stereo not drawn), the IC50 was determined as 758 nM in test [1] and 8460 nM in test [4].

Turning to `Cc1nc2[nH]c3c(C4CC4)cccc3c2cc1-c1nnc(C(C)C)o1`, the results for the IC50 in test [1] and in test [4] were 130 nM and 592 nM, respectively.

For `CNC(=O)c1cc2c(nc1C)[nH]c1c(C3CC3)cccc12`, the figures for the IC50 in test [1] and in test [4] were 5510 nM and > 30000 nM, respectively. The inhibition in test [6] was determined as 35%.

As for `Cc1nc(N2C[C@](CO)(Cc3ccccc3)C[C@H]2CO)c2c(n1)[nH]c1c(C3CC3)cccc12`, the IC50 came to 14.6 nM in test [1] and 292 nM in test [4].

On to `Cc1nc2[nH]c3c(C4CC4)cccc3c2cc1-c1nnc(CC(C)C)o1`, for which the IC50 was 56 nM in test [1] and 462 nM in test [4].

Consider `Cc1nc2[nH]c3c(C4CC4)cccc3c2cc1-c1nnc([C@@H](CC(=O)N[C@H](C)c2ccccc2)C(C)C)o1`, for which the IC50 was determined as 17.1 nM in test [1] and 61.5 nM in test [4].

For `CCCc1nnc(-c2cc3c(nc2C)[nH]c2c(C4CC4)cccc23)o1`, the IC50 is 91 nM in test [1] and 292 nM in test [4].

Consider `Cc1nc(N2C[C@@H](c3ccc(C(=O)O)[nH]3)C[C@H]2CO)c2c(n1)[nH]c1c(C3CC3)cccc12`, for which the IC50 in test [1] came out at 5.1 nM; in test [4], 12.2 nM.

As to `Cc1nc(N2CCC[C@H]2CO)c2c(n1)[nH]c1c(C3CC3)cccc12`, the IC50 was 352 nM in test [1] and 4530 nM in test [4].

On to `Cc1nc(N2C[C@@](Cc3ccccc3)(C(N)=O)C[C@H]2CO)c2c(n1)[nH]c1c(C3CC3)cccc12`, for which the IC50 was 4.5 nM in test [1] and 260 nM in test [4].

Consider `CCc1nnc(-c2cc3c(nc2C)[nH]c2c(C4CC4)cccc23)s1`, for which the IC50 came to 1490 nM in test [1] and 6620 nM in test [4].

Consider `Cc1nc2[nH]c3c(C4CC4)cccc3c2cc1-c1nnc(C(C)C(C)C)o1` (stereo not drawn), for which the IC50 in test [1] was 87 nM; in test [4], 494 nM.

Turning to `Cc1nc(N2C[C@@H](c3ccc(C(N)=O)[nH]3)C[C@H]2CO)c2c(n1)[nH]c1c(C3CC3)cccc12`, the values for the IC50 in test [1] and in test [4] were 5.5 nM and 17.8 nM, respectively.
